Assay results taken from patent publication US12349973B2 (priority 2019, dated 2025).

Key:
[1] = system: accommodation control system / ciliary body muscarinic receptors; settings: in vivo
[2] = system: pupil light response / muscarinic receptors within the iris; parameters: species or system human; settings: in vivo
[3] = molecular target: human iris muscarinic receptors; settings: cited from earlier work
[4] = system: muscarinic receptors within the eye; settings: in vivo; cited from earlier work

CN(C)CCOC(=O)C(c1ccccc1)C1(O)CCCC1 (stereo not drawn) [cyclopentolate]
ability to accommodate ([1]; human): maintained the ability to accommodate sufficiently to read at 33 cm | mean increase in the AC/A ratio over baseline [1]: 173% | receptoral blockade suggested by AC/A increase [1]: 42%

CN1[C@@H]2CC[C@H]1C[C@@H](OC(=O)C(CO)c1ccccc1)C2 (stereo partly drawn) [atropine]
baseline difference in pupil size [2]: 0.6 mm | estimated level of receptor blockade 1-(V400post/V400pre) [2]: 35% | peak difference in pupil constriction (light response) [2]: 1.6 mm | apparent dissociation constant KA [3]: 0.4 to 0.7 nM | duration of effects [4]: 6 to 12 days | duration of pupil dilatation and paralysis of accommodation [4]: up to 7 days
